One test has as its target AktK (Homo sapiens, UniProt P31749). Briefly: Luciferase-coupled chemiluminescence kinase assay (ATP consumption). Conditions: Table 1; class symbols per key; read-out: AKT-1 IC50. In kind it is biochemical. In a few lines: (§1)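 Activity is read as ATP depletion: luciferase-luciferin reagent added after a 3 h ambient-temperature kinase reaction, with total ATP use limited to 25-60%. Before ATP addition, 2.5-5 nM kinase and compound were preincubated 30 min in Tris pH 7.5/MgCl2/TX-100/DTT buffer; […].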

For the next test, the target named is p70S6K (Homo sapiens, UniProt P23443). The test is described as above. Type of test: biochemical. Conditions: Table 1; class symbols per key. In a few lines: as §1
p70S6K, sequence (P23443 whole entry): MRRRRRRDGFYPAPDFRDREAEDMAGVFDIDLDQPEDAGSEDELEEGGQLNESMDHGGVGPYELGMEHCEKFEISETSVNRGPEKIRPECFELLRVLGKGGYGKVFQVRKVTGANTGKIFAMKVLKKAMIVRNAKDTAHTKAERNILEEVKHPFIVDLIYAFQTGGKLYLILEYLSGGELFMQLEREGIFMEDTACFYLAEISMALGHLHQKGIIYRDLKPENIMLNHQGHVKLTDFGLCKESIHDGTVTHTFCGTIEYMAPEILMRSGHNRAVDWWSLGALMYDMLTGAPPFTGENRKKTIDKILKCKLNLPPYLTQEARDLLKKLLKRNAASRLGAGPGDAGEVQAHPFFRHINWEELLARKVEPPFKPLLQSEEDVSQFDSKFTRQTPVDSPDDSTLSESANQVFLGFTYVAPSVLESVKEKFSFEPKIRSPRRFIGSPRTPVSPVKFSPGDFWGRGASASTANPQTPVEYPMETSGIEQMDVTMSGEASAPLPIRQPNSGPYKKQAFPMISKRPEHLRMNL

SMILES strings stand for the structures.

AktK, sequence (P31749 whole entry): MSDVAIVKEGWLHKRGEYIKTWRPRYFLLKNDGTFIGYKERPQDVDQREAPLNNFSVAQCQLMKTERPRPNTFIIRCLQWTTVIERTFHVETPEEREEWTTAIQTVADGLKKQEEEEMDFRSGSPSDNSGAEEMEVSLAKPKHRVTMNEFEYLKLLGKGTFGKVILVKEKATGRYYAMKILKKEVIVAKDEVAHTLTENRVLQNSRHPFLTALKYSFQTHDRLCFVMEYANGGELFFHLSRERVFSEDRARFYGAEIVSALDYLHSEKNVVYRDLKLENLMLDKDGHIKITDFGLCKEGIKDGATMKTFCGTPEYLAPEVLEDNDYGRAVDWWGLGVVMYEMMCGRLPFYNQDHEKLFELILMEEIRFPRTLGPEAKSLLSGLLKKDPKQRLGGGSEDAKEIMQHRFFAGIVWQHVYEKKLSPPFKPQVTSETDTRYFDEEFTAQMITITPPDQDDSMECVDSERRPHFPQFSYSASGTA

In general, IC50 refers to the concentration that gives 50% inhibition. With `Cc1cccc(N2CCN(c3ncnc4[nH]nc(Br)c34)CC2C)c1` (stereo not shown) [Entry 158, 3-bromo-4-[3-methyl-4-(3-methylphenyl)piperazin-1-yl]-1H-pyrazolo[3,4-d]pyrimidine], the values for the IC50 at AktK and against p70S6K were 1000 to 10000 nM and less than 100 nM, respectively.

Consider `Cc1c(Br)cc(Cl)cc1N1CCN(c2nc(N)nc3[nH]ncc23)CC1` [Entry 159, 4-[4-(3-bromo-5-chloro-2-methylphenyl)piperazin-1-yl]-1H-pyrazolo[3,4-d]pyrimidin-6-amine], for which the IC50 is no less than 10000 nM on AktK and 1000 to 10000 nM against p70S6K.

For `Cc1c(OCCN2CCCC2)cc(Cl)cc1N1CCN(c2ncnc3[nH]nc(C4CC4)c23)CC1` [Entry 160, 4-(4-{5-chloro-2-methyl-3-[(2-pyrrolidin-1-ylethyl)oxy]phenyl}piperazin-1-yl)-3-cyclopropyl-1H-pyrazolo[3,4-d]pyrimidine], the IC50 at AktK was 1000 to 10000 nM; at p70S6K, less than 100 nM.

Turning to `Cc1c(NCCN2CCCC2)cc(Cl)cc1N1CCN(c2ncnc3[nH]nc(C4CC4)c23)CC1` [Entry 161, 5-chloro-3-[4-(3-cyclopropyl-1H-pyrazolo[3,4-d]pyrimidin-4-yl)piperazin-1-yl]-2-methyl-N-(2-pyrrolidin-1-ylethyl)aniline], the IC50 is 100 to 1000 nM at AktK and less than 100 nM against p70S6K.

Consider `Cc1c(NCCN2CCCC2)cc(Cl)cc1N1CCN(c2ncnc3[nH]nc(CC(C)C)c23)CC1` [Entry 162, 5-chloro-2-methyl-3-{4-[3-(2-methylpropyl)-1H-pyrazolo[3,4-d]pyrimidin-4-yl]piperazin-1-yl}-N-(2-pyrrolidin-1-ylethyl)aniline], for which the IC50 at AktK was 100 to 1000 nM; on p70S6K, less than 100 nM.

For the molecule `Cc1c(OCCN2CCCC2)cc(Cl)cc1N1CCN(c2ncnc3[nH]nc(CC(C)C)c23)CC1` [Entry 163, 4-(4-{5-chloro-2-methyl-3-[(2-pyrrolidin-1-ylethyl)oxy]phenyl}piperazin-1-yl)-3-(2-methylpropyl)-1H-pyrazolo[3,4-d]pyrimidine], the IC50 at AktK was 1000 to 10000 nM; against p70S6K, less than 100 nM.

As for `Cc1ccc(Cl)cc1N1CCN(c2ncnc3[nH]nc(Br)c23)C[C@@H]1C` [Entry 164, 3-bromo-4-[(3S)-4-(5-chloro-2-methylphenyl)-3-methylpiperazin-1-yl]-1H-pyrazolo[3,4-d]pyrimidine], the IC50 on AktK is 100 to 1000 nM; at p70S6K, less than 100 nM.

On to `CCc1n[nH]c2ncnc(N3CCN(c4cc(Br)cc(N)c4C)CC3)c12` [Entry 165, 5-bromo-3-[4-(3-ethyl-1H-pyrazolo[3,4-d]pyrimidin-4-yl)piperazin-1-yl]-2-methylaniline], for which the figures for the IC50 on AktK and against p70S6K were 100 to 1000 nM and less than 100 nM, respectively.

For `O=C(COc1cccc(N2CCN(c3ncnc4[nH]nc(Br)c34)CC2)c1)NC1CC1` [Entry 166, 2-({3-[4-(3-bromo-1H-pyrazolo[3,4-d]pyrimidin-4-yl)piperazin-1-yl]phenyl}oxy)-N-cyclopropylacetamide], the values for the IC50 at AktK and on p70S6K were 1000 to 10000 nM and less than 100 nM, respectively.

`Brc1n[nH]c2ncnc(N3CCN(c4nccnc4OCCN4CCCCC4)CC3)c12` [Entry 167, 3-bromo-4-(4-{3-[(2-piperidin-1-ylethyl)oxy]pyrazin-2-yl}piperazin-1-yl)-1H-pyrazolo[3,4-d]pyrimidine]: the IC50 was 1000 to 10000 nM on AktK and 100 to 1000 nM against p70S6K.

As to `CCc1n[nH]c2ncnc(N3CCN(c4ncnc5cc(OC)c(OC)cc45)CC3)c12` [Entry 169, 4-[4-(3-ethyl-1H-pyrazolo[3,4-d]pyrimidin-4-yl)piperazin-1-yl]-6,7-bis(methyloxy)quinazoline], the IC50 on AktK is no less than 10000 nM; at p70S6K it was 1000 to 10000 nM.

In the case of `CCc1n[nH]c2ncnc(N3CCN(c4cc(Cl)cc(OCCN(CC)CC)c4)CC3)c12` [Entry 170, 2-({3-chloro-5-[4-(3-ethyl-1H-pyrazolo[3,4-d]pyrimidin-4-yl)piperazin-1-yl]phenyl}oxy)-N,N-diethylethanamine], the figures for the IC50 at AktK and on p70S6K were no less than 10000 nM and 100 to 1000 nM, respectively.

With `CCc1n[nH]c2ncnc(N3CCN(c4cc(C(F)(F)F)ccc4Cl)CC3)c12` [Entry 171, 4-{4-[2-chloro-5-(trifluoromethyl)phenyl]piperazin-1-yl}-3-ethyl-1H-pyrazolo[3,4-d]pyrimidine], the IC50 at AktK was 1000 to 10000 nM; against p70S6K, less than 100 nM.

In the case of `CCc1n[nH]c2ncnc(N3CCN(c4cc(OCC(C)C)cc(NCCN5CCCC5)c4C)CC3)c12` [Entry 172, 3-[4-(3-ethyl-1H-pyrazolo[3,4-d]pyrimidin-4-yl)piperazin-1-yl]-2-methyl-5-[(2-methyl-propyl)oxy]-N-(2-pyrrolidin-1-ylethyl)aniline], the IC50 at AktK and on p70S6K was less than 100 nM throughout.

Turning to `CCN(CC)CCCOc1nc(Cl)c(C)c(N2CCN(c3ncnc4[nH]nc(Br)c34)CC2)n1` [Entry 173, 3-({4-[4-(3-bromo-1H-pyrazolo[3,4-d]pyrimidin-4-yl)piperazin-1-yl]-6-chloro-5-methylpyrimidin-2-yl}oxy)-N,N-diethylpropan-1-amine], the values for the IC50 on AktK and at p70S6K were 1000 to 10000 nM and 100 to 1000 nM, respectively.

Regarding `CCc1n[nH]c2ncnc(N3CCN(c4cc(OCc5ccccc5)cc(NCCN5CCCC5)c4C)CC3)c12` [Entry 174, 3-[4-(3-ethyl-1H-pyrazolo[3,4-d]pyrimidin-4-yl)piperazin-1-yl]-2-methyl-5-[(phenylmethyl)oxy]-N-(2-pyrrolidin-1-ylethyl)aniline], the IC50 on AktK is 100 to 1000 nM; against p70S6K, less than 100 nM.

For `Cc1ccc(Cl)cc1N1CCN(c2ncnc3[nH]nc(Br)c23)C[C@H]1C` [Entry 176, 3-bromo-4-[(3R)-4-(5-chloro-2-methylphenyl)-3-methylpiperazin-1-yl]-1H-pyrazolo[3,4-d]pyrimidine], the IC50 at AktK is no less than 10000 nM; on p70S6K, 100 to 1000 nM.

For `Cc1ccc(C(=O)Nc2ccccc2)cc1N1CCN(c2ncnc3[nH]nc(Br)c23)C[C@@H]1C` [Entry 177, 3-[(2S)-4-(3-bromo-1H-pyrazolo[3,4-d]pyrimidin-4-yl)-2-methylpiperazin-1-yl]-4-methyl-N-phenylbenzamide], the IC50 on AktK is 100 to 1000 nM; on p70S6K it was less than 100 nM.

`Cc1ccc(C(=O)NCc2ccccc2)cc1N1CCN(c2ncnc3[nH]nc(Br)c23)C[C@@H]1C` [Entry 178, 3-[(2S)-4-(3-bromo-1H-pyrazolo[3,4-d]pyrimidin-4-yl)-2-methylpiperazin-1-yl]-4-methyl-N-(phenylmethyl)benzamide]: the IC50 is 1000 to 10000 nM at AktK and less than 100 nM on p70S6K.

`COC(=O)c1ccc(C)c(N2CCN(c3ncnc4[nH]nc(Br)c34)CC2)c1` [Entry 179, methyl 3-[4-(3-bromo-1H-pyrazolo[3,4-d]py-rimidin-4-yl)piperazin-1-yl]-4-methylbenzoate]: the IC50 on AktK and at p70S6K was less than 100 nM throughout.

On to `Cc1ccc(C(=O)O)cc1N1CCN(c2ncnc3[nH]nc(Br)c23)CC1` [Entry 180, 3-[4-(3-bromo-1H-pyrazolo[3,4-d]pyrimidin-4-yl)piperazin-1-yl]-4-methylbenzoic acid], for which the IC50 is 100 to 1000 nM on AktK and less than 100 nM at p70S6K.

On to `Cc1c(CCCN2CCCC2)cc(Cl)cc1N1CCN(c2ncnc3[nH]nc(/C=C/C(=O)O)c23)CC1` [Entry 181, (2E)-3-(4-{4-[5-chloro-2-methyl-3-(3-pyrrolidin-1-ylpropyl)phenyl]piperazin-1-yl}-1H-pyrazolo[3,4-d]pyrimidin-3-yl)prop-2-enoic acid], for which the IC50 at AktK and against p70S6K was less than 100 nM in each case.

Consider `Cc1c(CCCN2CCCC2)cc(Cl)cc1N1CCN(c2ncnc3[nH]nc(C#CCO)c23)CC1` [Entry 182, 3-(4-{4-[5-chloro-2-methyl-3-(3-pyrrolidin-1-ylpropyl)phenyl]piperazin-1-yl}-1H-pyrazolo[3,4-d]pyrimidin-3-yl)prop-2-yn-1-ol], for which the IC50 at AktK and at p70S6K was less than 100 nM in each case.

`Cc1ccc(Cl)cc1N1CCN(c2ncnc3[nH]nc(Br)c23)CC1=O` [Entry 183, 4-(3-bromo-1H-pyrazolo[3,4-d]pyrimidin-4-yl)-1-(5-chloro-2-methylphenyl)piperazin-2-one]: the IC50 was no less than 10000 nM at AktK and less than 100 nM on p70S6K.

In the case of `Cc1c(NCCN2CCCC2)cc(OCC(C)C)cc1N1CCN(c2ncnc3[nH]nc(Br)c23)CC1` [Entry 184, 3-[4-(3-bromo-1H-pyrazolo[3,4-d]pyrimidin-4-yl)piperazin-1-yl]-2-methyl-5-[(2-methyl-propyl)oxy]-N-(2-pyrrolidin-1-ylethyl)aniline], the IC50 at AktK and against p70S6K was less than 100 nM throughout.

For the molecule `COC(=O)c1cc(Br)c(C)c(N2CCN(c3ncnc4[nH]nc(Br)c34)CC2)c1` [Entry 186, methyl 3-bromo-5-[4-(3-bromo-1H-pyrazolo[3,4-d]pyrimidin-4-yl)piperazin-1-yl]-4-methylbenzoate], the IC50 at AktK was 100 to 1000 nM; against p70S6K, less than 100 nM.

For the molecule `Cc1ccc(C(=O)Nc2ccccc2)cc1N1CCN(c2ncnc3[nH]nc(Br)c23)CC1` [Entry 187, 3-[4-(3-bromo-1H-pyrazolo[3,4-d]pyrimidin-4-yl)piperazin-1-yl]-4-methyl-N-phenylbenzamide], the IC50 at AktK and at p70S6K was less than 100 nM each time.

`CNC(=O)c1ccc(C)c(N2CCN(c3ncnc4[nH]nc(Br)c34)CC2)c1` [Entry 188, 3-[4-(3-bromo-1H-pyrazolo[3,4-d]pyrimidin-4-yl)piperazin-1-yl]-N,4-dimethylbenzamide]: the values for the IC50 on AktK and against p70S6K were 100 to 1000 nM and less than 100 nM, respectively.

Regarding `CCN(CC)CCOc1cccc(N2CCN(c3ncnc4[nH]nc(Br)c34)CC2)c1` [Entry 189, 2-({3-[4-(3-bromo-1H-pyrazolo[3,4-d]pyrimidin-4-yl)piperazin-1-yl]phenyl}oxy)-N,N-diethylethanamine], the figures for the IC50 at AktK and against p70S6K were no less than 10000 nM and 100 to 1000 nM, respectively.

Values taken from patent publication US8076338B2, “Kinase modulators and methods of use” (Exelixis, Inc., priority 2004, dated 2011).
